Assay results from ChEMBL document CHEMBL3988442, “University of Dundee, Small-Polar-MMV Screening Library” (2021).
Several values for one entry are separate records, joined by “and”; a condition that tells them apart may be missing. Equal entries are not always repeated.

How the values were obtained:
Lysine--tRNA ligase = Lysine--tRNA ligase (Plasmodium falciparum (isolate 3D7), UniProt Q8IDJ8); experiment: Pf-KRS-1 (Lysyl-RNA Synthetase-1, KRS-1, cytosolic KRS) from Plasmodium falciparum. Inhibitor assay, 384 well plate, luminescence read.; type: functional
Sequence of Lysine--tRNA ligase (Q8IDJ8 whole entry): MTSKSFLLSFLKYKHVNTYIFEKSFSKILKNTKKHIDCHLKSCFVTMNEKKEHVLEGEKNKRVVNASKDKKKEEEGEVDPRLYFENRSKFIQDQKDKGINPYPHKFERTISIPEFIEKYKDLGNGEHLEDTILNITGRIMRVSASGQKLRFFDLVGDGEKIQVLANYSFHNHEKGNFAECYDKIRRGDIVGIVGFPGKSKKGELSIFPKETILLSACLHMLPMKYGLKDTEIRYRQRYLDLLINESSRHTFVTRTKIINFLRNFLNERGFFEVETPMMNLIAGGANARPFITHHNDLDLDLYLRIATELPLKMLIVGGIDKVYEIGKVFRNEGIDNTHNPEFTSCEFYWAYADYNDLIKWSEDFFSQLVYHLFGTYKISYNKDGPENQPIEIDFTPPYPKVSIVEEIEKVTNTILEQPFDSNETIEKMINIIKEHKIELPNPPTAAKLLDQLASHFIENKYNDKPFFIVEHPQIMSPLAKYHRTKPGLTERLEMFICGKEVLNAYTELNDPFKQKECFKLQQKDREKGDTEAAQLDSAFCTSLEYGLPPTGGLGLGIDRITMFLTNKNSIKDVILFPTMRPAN

[1] = In vitro enzyme assay to detect hydrolysis of chlorophenol red-beta-D-[…] directly proportional to the number of Toxoplasma stably expressing beta-galactosidase; type: functional, organism-based, Toxoplasma gondii; settings: for IC50: Toxoplasma gondii
[2] = target: T1, Coenzyme A biosynthesis bifunctional protein CoaBC (Mycobacterium tuberculosis (strain ATCC 25618 / H37Rv), UniProt P9WNZ1); experiment: Biomol Green assay for MtCoaBC inhibitor, OD650 read; type: functional
T1 sequence (P9WNZ1 whole entry): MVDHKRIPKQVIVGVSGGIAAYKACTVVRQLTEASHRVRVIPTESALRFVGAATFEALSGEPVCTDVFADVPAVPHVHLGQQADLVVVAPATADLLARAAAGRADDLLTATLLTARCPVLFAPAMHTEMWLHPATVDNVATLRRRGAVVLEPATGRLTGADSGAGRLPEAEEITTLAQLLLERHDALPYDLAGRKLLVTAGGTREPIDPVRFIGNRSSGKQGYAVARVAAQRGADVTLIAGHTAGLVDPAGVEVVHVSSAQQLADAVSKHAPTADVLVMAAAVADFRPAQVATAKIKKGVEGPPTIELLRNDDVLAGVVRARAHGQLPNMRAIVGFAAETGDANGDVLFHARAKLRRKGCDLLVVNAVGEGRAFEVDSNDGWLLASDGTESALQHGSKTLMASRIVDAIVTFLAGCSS

Histidine--tRNA ligase = target: T2, Histidine--tRNA ligase (Leishmania infantum, UniProt A4I591); experiment: Leishmania infantum Histidine tRNA synthetase (LdHisRS); type: functional
T2 sequence (A4I591 whole entry): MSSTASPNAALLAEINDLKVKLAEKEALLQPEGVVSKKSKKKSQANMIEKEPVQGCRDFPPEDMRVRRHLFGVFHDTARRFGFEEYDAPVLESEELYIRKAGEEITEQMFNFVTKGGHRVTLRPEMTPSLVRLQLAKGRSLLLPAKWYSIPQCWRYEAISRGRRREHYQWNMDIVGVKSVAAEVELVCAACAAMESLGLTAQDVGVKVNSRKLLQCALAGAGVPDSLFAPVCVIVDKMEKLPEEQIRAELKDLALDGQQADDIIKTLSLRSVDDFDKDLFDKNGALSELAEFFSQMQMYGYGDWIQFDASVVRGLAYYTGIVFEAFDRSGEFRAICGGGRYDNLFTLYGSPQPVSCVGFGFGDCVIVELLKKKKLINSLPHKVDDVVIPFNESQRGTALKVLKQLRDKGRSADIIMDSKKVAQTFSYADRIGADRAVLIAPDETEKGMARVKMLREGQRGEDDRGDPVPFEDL

Plasmodium falciparum = experiment: Calibr Malaria Delayed Death Assay SOP; type: functional, organism-based; settings: for IC50: Plasmodium falciparum
ClpP1P2 = ClpP1P2 (Mycobacterium tuberculosis (strain ATCC 25618 / H37Rv), UniProt P9WPC3+P9WPC5); experiment: in vitro assay to detect presence of AMC directly proportional to the activity of ClpP1P2. GHDDI collaboration.; type: functional
Sequence of ClpP1P2 (P9WPC5 whole entry): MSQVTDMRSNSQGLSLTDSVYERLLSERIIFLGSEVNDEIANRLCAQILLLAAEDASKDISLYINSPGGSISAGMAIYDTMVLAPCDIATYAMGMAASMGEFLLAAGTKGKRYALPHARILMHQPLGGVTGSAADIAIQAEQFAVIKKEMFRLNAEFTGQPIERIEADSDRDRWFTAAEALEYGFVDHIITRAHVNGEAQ
Sequence of ClpP1P2 (P9WPC3 whole entry): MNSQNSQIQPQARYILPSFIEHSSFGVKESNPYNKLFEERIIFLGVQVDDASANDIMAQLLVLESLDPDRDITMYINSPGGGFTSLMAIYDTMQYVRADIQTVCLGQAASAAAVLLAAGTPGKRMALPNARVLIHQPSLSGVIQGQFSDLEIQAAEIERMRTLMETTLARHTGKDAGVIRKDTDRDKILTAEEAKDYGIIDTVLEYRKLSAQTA

Tryptophan--tRNA ligase = Tryptophan--tRNA ligase (Mycobacterium tuberculosis (strain ATCC 25618 / H37Rv), UniProt P9WFT3); experiment: Biochemical assay for Mt-TrpRS; type: functional
Sequence of Tryptophan--tRNA ligase (P9WFT3 whole entry): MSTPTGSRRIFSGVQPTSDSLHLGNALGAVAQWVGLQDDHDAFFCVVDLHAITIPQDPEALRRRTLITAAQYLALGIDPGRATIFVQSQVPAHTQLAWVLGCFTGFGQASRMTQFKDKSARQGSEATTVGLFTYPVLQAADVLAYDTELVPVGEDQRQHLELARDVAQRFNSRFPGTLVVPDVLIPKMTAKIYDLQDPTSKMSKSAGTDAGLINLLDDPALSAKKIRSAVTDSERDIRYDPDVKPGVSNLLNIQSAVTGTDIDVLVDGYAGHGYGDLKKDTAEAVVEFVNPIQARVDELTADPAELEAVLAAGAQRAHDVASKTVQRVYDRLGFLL

Leishmania donovani = experiment: Leishmania intramacrophage assay; type: functional, organism-based; settings: Leishmania donovani
[3] = microbe, parasite or virus in culture; settings: Mycobacterium tuberculosis, 96 h, read-out: pIC50 (converted)
[4] = microbe, parasite or virus in culture; settings: Mycobacterium tuberculosis, 72 h, read-out: pIC50 (converted)

| SMILES | IC50 [2] | IC50 (Histidine--tRNA ligase) | also measured |
| --- | --- | --- | --- |
| CC(C)C(=O)NC1CCN(c2cccc(OC(F)(F)F)c2)C1=O (stereo unspecified) | – | – | IC50 (Lysine--tRNA ligase): > 50.1 µM |
| CCN1CCC(N2CCN(c3cc(-c4nc(C)no4)ccn3)CC2)CC1 | – | – | IC50 (Lysine--tRNA ligase): > 50.1 µM |
| Cc1ccc(C(=O)Nc2c(C(=O)N(C)C)nn(C)c2C)cc1C | > 30.2 µM | – | IC50 [1]: > 50.1 µM |
| CC(C)(C)c1cc(CN2CCOC(CCc3ccccc3)C2)n[nH]1 (stereo unspecified) | – | – | IC50 (Lysine--tRNA ligase): > 50.1 µM |
| COc1cccc(CNc2cc(C)nc(-c3ccncc3)n2)c1OC | > 30.2 µM | 91.8 µM and > 100 µM | pIC50 (Plasmodium falciparum): 6.336; IC50 (Plasmodium falciparum): 0.465 µM |
| COc1ccc(-n2cc(CNC(=O)c3ccc[nH]3)nn2)cc1 | > 30.2 µM | 33.4 µM and 45.8 µM | – |
| NCC1Cc2cc(Oc3cc(F)c(CN4CCCC4)c(F)c3)ccc2O1 (stereo unspecified) | > 30.2 µM | 30.2 µM and 36.9 µM | IC50 [1]: 20.4 µM; IC50 (ClpP1P2): 20.8 µM |
| Cc1cc(CCC2CN(CC3(O)CCCCC3)CCO2)ncn1 (stereo unspecified) | > 30.2 µM | – | IC50 (Tryptophan--tRNA ligase): > 195 µM |
| CCN(CC)CCNS(=O)(=O)c1cccc(CSC)c1 | > 30.2 µM | – | pIC50 (Plasmodium falciparum): 6.161; IC50 (Plasmodium falciparum): 0.551 µM |
| Cc1ccc(CN2C[C@@H]3CCN(Cc4ccncc4)C(=O)[C@H]3C2)s1 | > 30.2 µM | – | IC50 (ClpP1P2): 34.3 µM |
| Cc1n[nH]c(C)c1-c1c(C#N)c(N)nc2c1CCc1[nH]ccc1-2 | > 30.2 µM | 16.8 µM and 18.1 µM | IC50 (ClpP1P2): > 100 µM |
| CCN(Cc1ccc2cccc(O)c2n1)CC1CCCO1 (stereo unspecified) | > 30.2 µM | 18.6 µM and 12.3 µM | – |
| O=S(=O)(CCCn1cncn1)Cc1ccc(F)cc1Cl | 4.13 µM and 4.68 µM | 10.5 µM and 17.6 µM | – |
| CCn1c(NCc2ccccn2)nc2c(C)nn(C)c2c1=O | > 30.2 µM | – | pIC50 [1]: < 4.3 and 4.672 |
| Cc1cc(N2CCC(O)CC2)nc(C2CCCN2C)n1 (stereo unspecified) | > 30.2 µM | 31 µM and 38.1 µM | – |
| c1ccc(Cn2cc(CNCC3CNc4ccnn4C3)cn2)cc1 (stereo unspecified) | > 30.2 µM | – | IC50 (Tryptophan--tRNA ligase): > 195 µM |
| Cc1ccc(C)n1-c1ccc(C(=O)NCCNc2ncccn2)cc1 | > 30.2 µM | > 100 µM | – |
| CS(=O)(=O)N1CCC2(CC1)CN(CCn1cccn1)C(=O)CO2 | > 50.1 µM | > 100 µM | – |
| Cc1nccn1-c1cccc(C2CCCN2)n1 (stereo unspecified) | > 30.2 µM | – | IC50 (ClpP1P2): > 100 µM |
| O=C(O)CN1CCC(F)(F)C2(CCN(c3ccccc3)C2)C1 (stereo unspecified) | > 30.2 µM | 43.6 µM and 39.5 µM | IC50 (Leishmania donovani): > 50.1 µM |
| Cc1nn(C)c(C)c1CN(C)C(=O)c1cc(NC(=O)C2CC2)n(C)n1 | > 30.2 µM | – | IC50 [1]: > 50.1 µM |

| SMILES | IC50 [2] | IC50 (Histidine--tRNA ligase) | also measured |
| --- | --- | --- | --- |
| Cn1cc(CNC2CCCOc3c2ccc2ccccc32)cn1 (stereo unspecified) | > 30.2 µM | – | pIC50 (Plasmodium falciparum): 6.02; IC50 (Plasmodium falciparum): 0.871 µM |
| COc1ccc(-c2nc(CCNc3nnc(C)c(C)c3C#N)co2)cc1 | > 30.2 µM | 58.1 µM and 60.7 µM | – |
| CC(C)Cc1nc(CO)n(-c2ccc3c(c2)OCCO3)n1 | > 30.2 µM | – | IC50 (ClpP1P2): > 100 µM |
| COc1c(Cl)cc(Cl)cc1CN1CCC(C(N)=O)C1 (stereo unspecified) | > 30.2 µM | – | IC50 [3]: > 50.1 µM; IC50 [4]: > 50.1 µM |
| CCn1cc(-c2cc(C(F)(F)F)nc(NC3CCCC3)n2)c(C)n1 | > 30.2 µM | – | pIC50 [1]: 4.783; IC50 [1]: 17.8 µM; IC50 (Leishmania donovani): > 50.1 µM |
| Cc1ccc(NS(=O)(=O)c2cnn(-c3ccccc3)c2)c(C(=O)O)c1 | 22.5 µM and 20.5 µM | 38.9 µM and 18.2 µM | – |
| Cc1c[nH]nc1C1CCN(C(=O)C2CCOCC2)C1 (stereo unspecified) | > 30.2 µM | – | IC50 (Tryptophan--tRNA ligase): > 195 µM |
| N#Cc1ccsc1N1CCC(Sc2ccncc2)C1=O (stereo unspecified) | > 30.2 µM | 17.7 µM and 33 µM | – |
| CC(C)(C)CN1CCN2C(=O)N(C3CCCCC3)C[C@H]2C1 | > 30.2 µM | – | IC50 [3]: > 50.1 µM; IC50 [4]: > 50.1 µM |
| Cc1nc(-c2ccc(CC(=O)N3CCN(C(=O)C(C)C)CC3)cc2)cs1 | > 30.2 µM | 24.8 µM and 12.4 µM | IC50 (ClpP1P2): 8.96 µM |
| COc1ccc(C(O)CN2CC(n3nc(C)cc3C)C2)cc1 (stereo unspecified) | > 30.2 µM | – | pIC50 (Plasmodium falciparum): 5.759; IC50 (Plasmodium falciparum): 1.76 µM |
| Cc1ccc(-c2cc(-c3nc(CN4CCN(C)CC4)no3)[nH]n2)s1 | > 30.2 µM | – | IC50 (ClpP1P2): > 100 µM |
| COc1ccsc1C(=O)Nc1cc(Br)c(=O)n(C)c1 | > 30.2 µM | 19.7 µM and 23.3 µM | – |
| COc1ccc(-c2noc(C3CC(C(C)C)=NO3)n2)cc1 (stereo unspecified) | > 30.2 µM | – | – |
| CC(C)N1CCC(C(=O)N2CCc3c(nc(CC4CC4)[nH]c3=O)C2)CC1 | > 30.2 µM | – | – |
| Cc1nnc(CN(C)S(=O)(=O)c2ccc(Br)cc2Cl)n1C | > 30.2 µM | – | – |
| CN1CCCC(CNC(=O)N(C)Cc2ccc(Cl)c(F)c2)C1 (stereo unspecified) | > 30.2 µM | – | – |
| O=C(c1ccc(-n2cnnn2)cc1)N1CCCC(n2ccnc2)C1 (stereo unspecified) | > 30.2 µM | – | – |
| Cc1cncc(C(=O)N2CCO[C@H]3[C@H](OCCN(C)C)CC[C@@H]32)c1 | > 30.2 µM | – | – |
| CCC(=O)NCCc1cc2nc(-c3ccncc3)ccn2n1 | > 30.2 µM | – | – |
